According to PMC11078216, “Discovery of potent and selective activity-based probes (ABPs) for the deubiquitinating enzyme USP30” (RSC Chemical Biology, 2024):

Target: T1, USP30 (Homo sapiens, UniProt Q70CQ3)
T1 construct: We next determined cellular engagement of endogenous USP30 with IMP-2587 or IMP-2586; endogenous in cells; host or cells: HEK293T
T1 sequence (Q70CQ3 1-517): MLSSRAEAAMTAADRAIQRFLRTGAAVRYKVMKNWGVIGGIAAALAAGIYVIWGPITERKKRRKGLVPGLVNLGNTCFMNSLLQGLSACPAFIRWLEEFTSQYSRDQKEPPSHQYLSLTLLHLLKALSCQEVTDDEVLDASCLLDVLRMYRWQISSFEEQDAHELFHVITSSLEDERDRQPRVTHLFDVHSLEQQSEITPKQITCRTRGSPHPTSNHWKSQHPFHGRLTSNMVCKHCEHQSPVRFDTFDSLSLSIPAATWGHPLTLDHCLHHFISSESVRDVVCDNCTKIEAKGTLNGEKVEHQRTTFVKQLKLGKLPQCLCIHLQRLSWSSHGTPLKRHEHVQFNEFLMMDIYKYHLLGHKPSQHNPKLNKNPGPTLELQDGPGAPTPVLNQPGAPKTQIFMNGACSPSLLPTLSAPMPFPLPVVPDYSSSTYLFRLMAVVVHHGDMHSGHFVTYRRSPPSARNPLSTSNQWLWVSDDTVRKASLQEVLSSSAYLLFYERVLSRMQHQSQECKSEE
Assay: In-cell target engagement using HA-Ub-VME competition, immunoblot
Type: cell-based
Conditions: HEK293T cells, 1 hour, in-lysate HA-Ub-VME competition, western blot
Protocol: We next determined cellular engagement of endogenous USP30 with IMP-2587 or IMP-2586. […] In-cell concentration-dependent competition by IMP-2587 and IMP-2586 for USP30 were confirmed below 100 nM probe (Fig. 2b and c), whilst engagement of an exemplar unrelated DUB, UCHL1, occurred only at a much higher concentration (30 000 nM). We hypothesise that incomplete modification of USP30 by HA-Ub-VME is likely due to limited retention of USP30 activity in cell lysates, which have likely had the USP30 transmembrane domain compromised, highlighting the potential utility of a small molecule USP30 ABP applicable directly in intact cells. Direct USP30 target engagement by IMP-2587 and IMP-2586 was confirmed in HEK293T cells following 1 h probe treatment followed by cell lysis and CuAAC bio-orthogonal ligation to capture reagent azido-TAMRA-biotin (AzTB) for IMP-2587 or alkyne-TAMRA-biotin for IMP-2586 (Fig. 3a).[27] […] This unspecific background labelling is presumably due to the previously reported higher off-target CuAAC reactivity of an alkyne-bearing capture reagent, applied here due to incorporation of an azide tag in IMP-2586.[28] Moreover, the labelling of USP30 was further confirmed by biotin pulldown and immunoblotting.
2) USP30 in-cell engagement analysis […]
Protein concentration was determined by DC Protein assay (Bio-RAD). […]

| SMILES | probe concentration at which in-cell competition for USP30 was confirmed |
| --- | --- |
| N#CN1CC[C@@H](NC(=O)c2cc(-c3ccccc3Oc3ccc(N=[N+]=[N-])cc3)n[nH]2)C1 [IMP-2586] | below 100 nM |
| C#Cc1cccc(-c2cc(NC(=O)CC3CCN(C#N)C3)on2)c1 (centres unmarked) [IMP-2587] | below 100 nM |
